Reference: ChEMBL document CHEMBL5576125, “Discovery of Pyrazolopyrazines as Selective, Potent, and Mutant-Active MET Inhibitors with Intracranial Efficacy” (J Med Chem, 2024)

Assays:
[1] = target: Hepatocyte growth factor receptor (Homo sapiens, UniProt P08581, Y1230H); experiment: Displacement of tracer 236 from N-terminal GST-tagged recombinant human MET Y1230H mutant (956 to end residues) expressed in Sf9 insect cells incubated for 1 hr by TR-FRET assay
[2] = target: T1, Hepatocyte growth factor receptor (Homo sapiens, UniProt P08581, D1228N); experiment: Displacement of tracer 236 from N-terminal GST-tagged recombinant human MET D1228N mutant (956 to end residues) expressed in Sf9 insect cells incubated for 1 hr by TR-FRET assay
T1 sequence (P08581 25-1390 D1228N limits assumed): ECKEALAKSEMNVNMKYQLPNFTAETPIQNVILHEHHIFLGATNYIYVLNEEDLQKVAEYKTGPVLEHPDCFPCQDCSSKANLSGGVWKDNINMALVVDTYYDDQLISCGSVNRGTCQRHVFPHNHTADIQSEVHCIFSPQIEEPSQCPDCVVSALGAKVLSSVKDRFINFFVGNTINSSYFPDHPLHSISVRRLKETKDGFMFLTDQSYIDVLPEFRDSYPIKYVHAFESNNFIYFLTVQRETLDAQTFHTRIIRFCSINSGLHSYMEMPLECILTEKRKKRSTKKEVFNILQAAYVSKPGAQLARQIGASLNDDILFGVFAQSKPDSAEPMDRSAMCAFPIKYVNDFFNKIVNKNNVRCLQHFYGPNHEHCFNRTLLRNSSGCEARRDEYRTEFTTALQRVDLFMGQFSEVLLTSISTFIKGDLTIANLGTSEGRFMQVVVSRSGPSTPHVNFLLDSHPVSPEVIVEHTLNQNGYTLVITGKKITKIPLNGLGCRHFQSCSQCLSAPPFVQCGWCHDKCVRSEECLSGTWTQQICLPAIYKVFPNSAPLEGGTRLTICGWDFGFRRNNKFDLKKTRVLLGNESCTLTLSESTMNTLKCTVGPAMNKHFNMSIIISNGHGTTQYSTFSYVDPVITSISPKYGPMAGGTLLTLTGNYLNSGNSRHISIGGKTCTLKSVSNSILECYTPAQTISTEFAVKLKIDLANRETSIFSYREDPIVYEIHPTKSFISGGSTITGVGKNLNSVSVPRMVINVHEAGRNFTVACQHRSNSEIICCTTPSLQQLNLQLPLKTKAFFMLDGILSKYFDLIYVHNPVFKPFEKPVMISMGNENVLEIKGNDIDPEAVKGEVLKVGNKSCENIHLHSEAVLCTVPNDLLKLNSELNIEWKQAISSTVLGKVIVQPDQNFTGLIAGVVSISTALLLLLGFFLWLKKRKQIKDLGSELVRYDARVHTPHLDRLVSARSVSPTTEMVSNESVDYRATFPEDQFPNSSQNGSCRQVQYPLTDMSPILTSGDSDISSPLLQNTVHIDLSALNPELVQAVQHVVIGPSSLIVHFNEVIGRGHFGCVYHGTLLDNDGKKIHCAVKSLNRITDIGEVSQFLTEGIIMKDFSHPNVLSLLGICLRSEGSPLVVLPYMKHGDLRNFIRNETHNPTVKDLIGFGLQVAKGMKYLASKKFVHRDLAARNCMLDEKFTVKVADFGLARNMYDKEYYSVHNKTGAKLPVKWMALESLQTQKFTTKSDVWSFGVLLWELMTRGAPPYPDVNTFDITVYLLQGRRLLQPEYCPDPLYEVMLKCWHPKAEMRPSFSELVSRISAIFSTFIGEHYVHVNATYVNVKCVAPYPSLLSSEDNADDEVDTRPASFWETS

[3] = target: Hepatocyte growth factor receptor (Homo sapiens, UniProt P08581, F1200I); experiment: Displacement of tracer 236 from N-terminal GST-tagged recombinant human MET F1200I mutant (956 to end residues) expressed in Sf9 insect cells incubated for 1 hr by TR-FRET assay
[4] = Displacement of tracer 236 from N-terminal GST-tagged recombinant human MET […] mutant (956 to end residues) expressed in Sf9 insect cells incubated for 1 hr by TR-FRET assay
[5] = target: T1, Hepatocyte growth factor receptor; experiment: Inhibition of MET D1228N mutant (unknown origin) transfected in mouse NIH3T3 cells incubated for 1 hr by In-Cell Western assay; type: cell-based
[6] = Displacement of tracer 236 from N-terminal GST-tagged recombinant human MET exon 14 deletion mutant (956 to end residues) expressed in Sf9 insect cells incubated for 1 hr by TR-FRET assay
[7] = Metabolic stability in mouse hepatocytes assessed as clearance at 2 uM measured upto 120 mins by LC-MS/MS analysis; type: ADME, cell-based, Hepatocyte
[8] = Metabolic stability in human hepatocytes assessed as clearance at 2 uM measured upto 120 mins by LC-MS/MS analysis; type: ADME, cell-based, Hepatocyte
[9] = Apparent permeability across apical to basolateral side in MDCKII-MDR1 cells at 1 uM incubated for 2 hrs in orbital shaker by LC-MS/MS analysis; type: ADME, cell-based, Canis lupus familiaris; details: dog, MDCK-MDR1
[10] = Efflux ratio of apparent permeability across basolateral to apical over apical to basolateral side in MDCKII-MDR1 cells at 1 uM incubated for 2 hrs in orbital shaker by LC-MS/MS analysis; type: ADME, cell-based, Canis lupus familiaris; details: dog, MDCK-MDR1
[11] = target: Vascular endothelial growth factor receptor 2 (Homo sapiens, UniProt P35968); experiment: Inhibition of VEGFR-2 (unknown origin) by cell based assay; type: toxicity
Chain of Vascular endothelial growth factor receptor 2 (P35968 whole entry): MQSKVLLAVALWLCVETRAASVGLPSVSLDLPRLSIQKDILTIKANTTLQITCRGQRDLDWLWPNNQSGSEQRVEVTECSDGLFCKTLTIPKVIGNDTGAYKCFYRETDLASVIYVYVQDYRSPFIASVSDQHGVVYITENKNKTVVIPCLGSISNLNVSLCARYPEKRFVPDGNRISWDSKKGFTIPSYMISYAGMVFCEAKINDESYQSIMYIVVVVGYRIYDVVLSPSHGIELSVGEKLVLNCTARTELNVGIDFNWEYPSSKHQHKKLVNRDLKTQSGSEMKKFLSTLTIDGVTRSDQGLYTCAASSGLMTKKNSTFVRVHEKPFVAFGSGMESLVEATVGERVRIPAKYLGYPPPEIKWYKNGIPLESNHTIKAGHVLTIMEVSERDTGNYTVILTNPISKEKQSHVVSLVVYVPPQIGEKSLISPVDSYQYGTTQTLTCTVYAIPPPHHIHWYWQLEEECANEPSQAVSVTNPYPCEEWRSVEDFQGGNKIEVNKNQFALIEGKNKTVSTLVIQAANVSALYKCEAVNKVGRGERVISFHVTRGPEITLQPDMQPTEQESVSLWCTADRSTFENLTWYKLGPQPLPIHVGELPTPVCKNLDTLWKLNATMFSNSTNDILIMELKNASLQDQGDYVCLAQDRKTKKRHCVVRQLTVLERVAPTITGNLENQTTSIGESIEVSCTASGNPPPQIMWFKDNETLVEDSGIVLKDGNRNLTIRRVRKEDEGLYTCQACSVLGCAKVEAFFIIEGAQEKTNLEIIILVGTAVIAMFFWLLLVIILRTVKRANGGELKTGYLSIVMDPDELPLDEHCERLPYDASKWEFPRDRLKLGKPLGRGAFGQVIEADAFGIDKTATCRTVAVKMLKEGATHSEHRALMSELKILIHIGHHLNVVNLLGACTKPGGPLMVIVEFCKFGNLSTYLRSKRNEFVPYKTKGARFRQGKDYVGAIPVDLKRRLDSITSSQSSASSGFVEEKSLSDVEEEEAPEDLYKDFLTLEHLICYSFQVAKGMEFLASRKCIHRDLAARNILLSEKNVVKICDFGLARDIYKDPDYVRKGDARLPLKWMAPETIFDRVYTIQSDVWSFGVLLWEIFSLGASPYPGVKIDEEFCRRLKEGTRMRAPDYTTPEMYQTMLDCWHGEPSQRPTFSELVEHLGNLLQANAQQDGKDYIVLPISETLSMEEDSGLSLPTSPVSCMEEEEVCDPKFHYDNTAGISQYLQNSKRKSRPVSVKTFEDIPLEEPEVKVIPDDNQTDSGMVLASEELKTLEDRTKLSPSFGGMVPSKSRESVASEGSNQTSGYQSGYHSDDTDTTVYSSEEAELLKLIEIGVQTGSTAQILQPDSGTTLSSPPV

Chain of Hepatocyte growth factor receptor (Homo sapiens, UniProt P08581, Y1230H) (P08581 25-1390 Y1230H limits assumed): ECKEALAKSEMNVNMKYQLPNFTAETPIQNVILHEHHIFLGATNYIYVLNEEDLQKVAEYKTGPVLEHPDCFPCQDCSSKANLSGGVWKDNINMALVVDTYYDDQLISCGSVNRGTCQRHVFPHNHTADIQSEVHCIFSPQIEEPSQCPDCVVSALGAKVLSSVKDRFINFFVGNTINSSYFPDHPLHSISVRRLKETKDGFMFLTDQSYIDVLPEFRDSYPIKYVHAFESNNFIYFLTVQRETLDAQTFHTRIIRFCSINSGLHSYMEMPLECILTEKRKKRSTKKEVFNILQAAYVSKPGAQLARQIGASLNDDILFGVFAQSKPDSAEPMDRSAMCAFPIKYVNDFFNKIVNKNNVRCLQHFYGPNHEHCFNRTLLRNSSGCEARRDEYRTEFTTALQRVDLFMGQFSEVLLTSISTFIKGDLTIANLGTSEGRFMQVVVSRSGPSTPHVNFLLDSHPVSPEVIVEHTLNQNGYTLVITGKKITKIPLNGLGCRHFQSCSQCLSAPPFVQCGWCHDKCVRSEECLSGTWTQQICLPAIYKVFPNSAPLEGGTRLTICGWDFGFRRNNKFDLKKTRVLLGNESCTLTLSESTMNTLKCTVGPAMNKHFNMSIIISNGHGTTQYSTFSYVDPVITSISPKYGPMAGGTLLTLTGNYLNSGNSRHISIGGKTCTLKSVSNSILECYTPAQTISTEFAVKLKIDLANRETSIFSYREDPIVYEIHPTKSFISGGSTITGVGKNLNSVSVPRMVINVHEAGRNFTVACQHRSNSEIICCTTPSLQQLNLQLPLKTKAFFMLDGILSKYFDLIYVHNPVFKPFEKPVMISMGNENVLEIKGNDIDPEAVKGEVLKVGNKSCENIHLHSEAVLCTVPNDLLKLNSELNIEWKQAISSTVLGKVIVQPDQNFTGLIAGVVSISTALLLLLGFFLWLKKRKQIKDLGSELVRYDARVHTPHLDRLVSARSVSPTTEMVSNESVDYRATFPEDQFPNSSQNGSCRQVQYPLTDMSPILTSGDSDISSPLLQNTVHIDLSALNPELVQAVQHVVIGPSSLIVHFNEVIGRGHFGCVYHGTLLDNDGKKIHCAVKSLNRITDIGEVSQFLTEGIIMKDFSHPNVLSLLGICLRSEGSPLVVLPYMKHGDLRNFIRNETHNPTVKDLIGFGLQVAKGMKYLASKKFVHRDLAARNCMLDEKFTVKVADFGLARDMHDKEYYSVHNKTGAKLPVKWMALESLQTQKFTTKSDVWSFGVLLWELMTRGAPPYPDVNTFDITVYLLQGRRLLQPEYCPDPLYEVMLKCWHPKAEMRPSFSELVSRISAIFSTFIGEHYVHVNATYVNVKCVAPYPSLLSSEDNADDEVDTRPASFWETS

Row | IC50 [1] [nM] | IC50 [2] [nM] | IC50 [3] [nM] | IC50 [5] [nM] | CLhep predicted at 2 µM [7] [mL/min/kg] | CLhep predicted at 2 µM [8] [mL/min/kg] | Papp A→B at 2 h, 1 µM [9] [×10⁻⁶ cm/s] | efflux ratio at 2 h, 1 µM [10] | Compound | IC50 [4] [nM] | IC50 [6] [nM] | IC50 [11] [nM]
1 | 92 | 86 | 763 | 336 |  |  |  |  | CC(C)N(c1cc(F)c(NC(=O)c2ccnn(-c3ccc(F)cc3)c2=O)cc1F)c1cccn2nccc12 | 298 | 71 | 
2 | 6 | 7 | 171 | 39 |  |  |  |  | CO[C@H]1C[C@@H](N(c2cc(F)c(NC(=O)c3ccnn(-c4ccc(F)cn4)c3=O)cc2F)c2cccn3nccc23)C1 | 46 | 4 | 
3 | 5 | 6 | 98 | 40 | 31 | 9 | 15 |  | Cc1cc(N(c2cc(F)c(NC(=O)c3ccnn(-c4ccc(F)cn4)c3=O)cc2F)[C@H]2C[C@H](c3ccn(C)n3)C2)c(F)cn1 | 36 |  | 
4 | 2 | 4 | 58 | 25 |  |  |  |  | Cn1ccc(CCN(c2cc(F)c(NC(=O)c3ccnn(-c4ccc(F)cn4)c3=O)cc2F)c2cccn3nccc23)n1 | 19 |  | 
5 | 17 | 11 | 54 | 22 | 38 | 12 |  |  | COc1cc(N(c2cc(F)c(NC(=O)c3ccnn(-c4ccc(F)cn4)c3=O)cc2F)[C@H]2C[C@H](c3ccn(C)n3)C2)c2ccnn2c1 | 32 | 16 | 
6 | 4 | 5 | 36 | 20 | 77 | 21 | 5 |  | Cn1ccc([C@H]2C[C@H](N(c3cc(F)c(NC(=O)c4ccnn(-c5ccc(F)cn5)c4=O)cc3F)c3cccn4nccc34)C2)n1 | 12 |  | 
7 | 758 | 1770 | 5000 | > 5000 |  |  |  | 0.9 | Cc1cc2c(N(c3cc(F)c(NC(=O)c4ccnn(-c5ccc(F)cn5)c4=O)cc3F)[C@H]3C[C@H](c4ccn(C)n4)C3)nccn2n1 |  | 397 | 
8 | 32 | 79 | 3280 | 519 |  |  |  |  | Cn1ccc([C@H]2C[C@H](N(c3cc(C(F)F)c(NC(=O)c4ccnn(-c5ccc(F)cn5)c4=O)cc3F)c3nccn4nccc34)C2)n1 | 942 | 13 | 
9 |  |  |  |  |  |  |  |  | COCCNCc1ccc(-c2cc3nccc(Oc4ccc(NC(=S)NC(=O)Cc5ccc(F)cc5)cc4F)c3s2)nc1 [GLESATINIB] |  |  | 172
10 | 38 | 64 | 622 | 198 |  |  |  |  | CCN(c1cc(F)c(NC(=O)c2ccnn(-c3ccc(F)cc3)c2=O)cc1F)c1cccn2nccc12 | 172 | 36 | 
